Test results published in patent publication US12473264B2, “Inhibitors of erythrocyte band 3 tyrosine phosphorylation and uses thereof” (Purdue Research Foundation, priority 2019, dated 2025).
Where two headings read alike, the source gives them in different places.

Assays:
[1] = target: EGFR (Homo sapiens, UniProt P00533); test: ADP-Glo kinase assay, EGFR; format: biochemical
Procedure: (§1) Syk kinase inhibition assays were run on 96-well plates using the ADP-Glo assay kit according to manufacturer's specifications. All kinase reactions were run using Kinase Assay Buffer III supplemented with DTT and MnCl2 as required by the kinase of interest to generate kinase reaction buffer. Stock solutions of kinase inhibitor in DMSO were diluted into 2× kinase reaction buffer and the final concentration of DMSO in each kinase reaction was held below 1%. The total volume of each kinase reaction was 25 μL apportioned as: 5 μL 2× kinase reaction buffer or diluted kinase inhibitor, 5 μL 1 mg/mL (stock) kinase substrate, 10 μL kinase in kinase reaction buffer, and 5 μL 250 μM ATP diluted into kinase reaction buffer. Kinase inhibitors were incubated with kinase and substrate prior to addition of ATP for 20 min at room temperature (RT). After addition of ATP to the wells, the plate was incubated at 37° C. for 30-60 minutes depending on the kinase used. After incubation the plate was cooled to RT for 5 minutes prior to addition of 25 μL ADP-Glo reagent and incubation on a shaker for 40 minutes. […] After 30 min, the luminescence was recorded using a Neo2 plate reader and 1 sec integration of the signal. The background signal was subtracted from all readings and the signal was normalized to the maximum signal obtained in the absence of inhibitor. […]

[2] = target: SRC (Homo sapiens, UniProt P12931); test: ADP-Glo kinase assay, SRC; format: biochemical; conditions: FIG. 6B
Procedure: as §1

[3] = target: T1, ZAP70 (Homo sapiens, UniProt P43403); test: ADP-Glo kinase assay, ZAP70; format: biochemical; conditions: FIG. 6B
T1 sequence (P43403 1-619): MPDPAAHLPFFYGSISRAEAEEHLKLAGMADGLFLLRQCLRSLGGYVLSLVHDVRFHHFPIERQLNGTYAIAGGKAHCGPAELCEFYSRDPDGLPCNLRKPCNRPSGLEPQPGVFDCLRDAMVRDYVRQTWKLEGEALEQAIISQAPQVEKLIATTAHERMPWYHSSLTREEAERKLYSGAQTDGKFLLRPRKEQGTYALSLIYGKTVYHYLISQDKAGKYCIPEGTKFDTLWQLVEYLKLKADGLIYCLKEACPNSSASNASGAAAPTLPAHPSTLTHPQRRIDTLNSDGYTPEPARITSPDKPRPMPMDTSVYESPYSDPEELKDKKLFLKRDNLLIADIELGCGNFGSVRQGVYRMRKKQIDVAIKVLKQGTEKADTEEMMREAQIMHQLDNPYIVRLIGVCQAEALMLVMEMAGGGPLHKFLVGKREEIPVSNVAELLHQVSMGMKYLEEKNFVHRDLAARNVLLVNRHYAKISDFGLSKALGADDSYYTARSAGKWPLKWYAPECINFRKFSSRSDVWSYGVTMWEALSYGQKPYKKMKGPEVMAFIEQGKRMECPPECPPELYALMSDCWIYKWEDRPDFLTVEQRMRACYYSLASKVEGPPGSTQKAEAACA
Procedure: as §1

[4] = target: Lyn A (Homo sapiens, UniProt P07948); test: ADP-Glo kinase assay, Lyn A; format: biochemical; conditions: FIG. 6B
Procedure: as §1

[5] = target: Syk (Homo sapiens, UniProt P43405); test: ADP-Glo kinase inhibition assay, Syk; format: biochemical
Procedure: Syk kinase inhibition assays were run on 96-well plates using the ADP-Glo assay kit according to manufacturer's specifications. All kinase reactions were run using Kinase Assay Buffer III supplemented with DTT and MnCl2 as required by the kinase of interest to generate kinase reaction buffer. Stock solutions of kinase inhibitor in DMSO were diluted into 2× kinase reaction buffer and the final concentration of DMSO in each kinase reaction was held below 1%. […] Kinase inhibitors were incubated with kinase and substrate prior to addition of ATP for 20 min at room temperature (RT). After addition of ATP to the wells, the plate was incubated at 37° C. for 30-60 minutes depending on the kinase used. After incubation the plate was cooled to RT for 5 minutes prior to addition of 25 μL ADP-Glo reagent and incubation on a shaker for 40 minutes. After 40 minutes, 50 μL Kinase Detection reagent were added and the plate was protected from light while incubated on a shaker. After 30 min, the luminescence was recorded using a Neo2 plate reader and 1 sec integration of the signal. The background signal was subtracted from all readings and the signal was normalized to the maximum signal obtained in the absence of inhibitor. Data were plotted and inhibition curves fit using Graphpad software.

[6] = test system: phosphorylated Band 3; test: Band 3 tyrosine phosphorylation in SCD RBC lysates (Western blot); format: cell-based, human; conditions: 1 μM S701, SCD RBC lysates, anti-pY Western blot
Procedure: (§2) RBC ghosts were then prepared by mixing 150 μL of packed RBCs with 1500 μL of ice-cold ghost buffer (5 mM Na2HPO4, 1 mM EDTA, pH 8.0, containing 1 mM phenylmethylsulfonyl fluoride (PMSF) and 1% phosphatase cocktail inhibitors 2 and 3) and allowed to sit on ice for 30 min. Samples were centrifuged at 13000 rpm for 15 min at 4° C. and supernatants were removed. Ghost pellets were washed an additional 3×, after which 10 μL was removed for determination of protein concentration using Pierce™ Rapid Gold BCA Protein Assay (Thermo Fisher Scientific, A53226). Residual ghosts were solubilized in 4× Laemmli buffer (Bio-Rad) at a concentration of 1 […] and warmed to 30° C. for 30 min prior to storage at −20° C. until use.
(§3) Band 3 tyrosine phosphorylation was quantitated by loading 30 μL of each thawed sample onto a 10% SDS-PAGE gel and separating at 90, 120 and 150 V for 30, 45 and 20 minutes, respectively. Proteins were then transferred to a nitrocellulose membrane at 100 V for 2 hours, after which membranes were immunostained with anti-phosphotyrosine (1:1000, Cell Signaling, Inc.) or anti-actin (1:20000) antibodies dissolved in TBST (25 mM Tris, 140 mM NaCl, 3 mM KCl, 0.05% v/v Tween-20) containing 5% w/v milk. […] Band 3 tyrosine phosphorylation intensity/densitometry was quantitated using image J software.

[7] = test system: Syk phosphorylation of Band 3; test: Band 3 tyrosine phosphorylation induced in healthy donor RBCs by OV (Western blot); format: cell-based; conditions: Homo sapiens; healthy donor RBCs treated with OV; read-out: in vitro IC50 against Syk phosphorylation of Band 3
Procedure: as §2, §3

[8] = test system: SCD patient RBCs; test: Erythrocyte-derived microparticle release in SCD patient samples; format: cell-based, human; conditions: SCD patient samples incubated with 1 μM S701 (untreated SCD 18, healthy seven)
Procedure: Plasma from sickle cell samples (see above) was centrifuged 2× at 2500 rcf for 15 minutes to remove platelets and 100 μL of supernatant containing MPs was incubated for 20 minutes on ice with 0.5 μL of BV421 mouse-anti-human 235a antibody (anti-glycophorin A; BD Biosciences #562938). Samples were diluted with 1000 μL of stain buffer (BD Biosciences #554656), transferred to BD Trucount™ tubes (BD Biosciences #340334) and analyzed on an Attune NxT Flow Cytometer by utilizing violet fluorescent trigger channel. The absolute number of RBC-derived microparticles was then calculated using the following formula,
(§4) For evaluation of the effect of tyrosine kinase inhibitors on release of RBC-derived MPs from sickle cells suspended at 30% Hct in PBS-G, 500 μL washed RBCs were treated for 1 hour with the desired concentration of tyrosine kinase inhibitor or vehicle control, and then shaken at 1400 RPM for 4 h. Newly released microparticles were then separated from residual RBCs by centrifuging at 800 rcf for 10 minutes, collecting the supernatant, and analyzing the supernatant for RBC-derived MPs as described above.

[9] = test system: SCD patient RBCs; test: RBC velocity through microfluidic capillary; format: cell-based, human; conditions: concentrations as low as 50 nM, various levels of oxygenation
Procedure: Microfluidic capillary devices were fabricated with polydimethylsiloxane (PDMS) using standard soft photolithography techniques. Capillaries were constructed with a straight channel (w=75 μm, h=6.52 μm) containing a constriction (wc=5 μm and h=6.52 μm). To control the oxygen level inside the channel, the microfluidic device was submerged in a customized glass chamber filled with sodium sulfite solution (0M, 0.01M, 0.1M or 1M) (Sigma-Aldrich). The oxygen level was calibrated using 25 μM of tris(2,2′-bipyridyl)dichlororuthenium(II) hexahydrate (an O2 indicator, Sigma-Aldrich) then converted into a PO2 value using the Stern-Volmer equation, I0/I=1+PO2×Kq, where I^0 is the maximum fluorescence intensity and Kq is the quenching constant. The calibration results are obtained.
Sickle cell blood samples were obtained from five patients (n=5, age 4-9 years old) and RBCs were isolated by centrifugation. […] For quantitation of RBC velocity in a microfluidic capillary, the RBC suspension was injected into the capillary at a constant pressure of 1.6 psi, and the velocity of the RBCs in the constriction was recorded using a high-speed video camera (Phantom Miro M120, 1900 frames per second) mounted on an inverted microscope (Leica DMI 6000B). Data were analyzed using Phantom Camera Control software.

[10] = test system: healthy donor human RBCs; test: Hemolysis (Hb release) induced by phosphatase inhibitors in healthy donor human RBCs; format: cell-based
Description: (§5) Cayman's hemoglobin colorimetric assay was used to quantitate the level of cell-free plasma hemoglobin in both patient plasma samples and in the above kinase-treated RBC supernatant samples according to the manufacturer's instruction.

[11] = test system: SCD patient RBCs; test: Free plasma hemoglobin in SCD patient samples; format: cell-based, human; conditions: 1 μM S701, SCD patient samples
Procedure: as §4, §5

Chain of EGFR (P00533 25-1210): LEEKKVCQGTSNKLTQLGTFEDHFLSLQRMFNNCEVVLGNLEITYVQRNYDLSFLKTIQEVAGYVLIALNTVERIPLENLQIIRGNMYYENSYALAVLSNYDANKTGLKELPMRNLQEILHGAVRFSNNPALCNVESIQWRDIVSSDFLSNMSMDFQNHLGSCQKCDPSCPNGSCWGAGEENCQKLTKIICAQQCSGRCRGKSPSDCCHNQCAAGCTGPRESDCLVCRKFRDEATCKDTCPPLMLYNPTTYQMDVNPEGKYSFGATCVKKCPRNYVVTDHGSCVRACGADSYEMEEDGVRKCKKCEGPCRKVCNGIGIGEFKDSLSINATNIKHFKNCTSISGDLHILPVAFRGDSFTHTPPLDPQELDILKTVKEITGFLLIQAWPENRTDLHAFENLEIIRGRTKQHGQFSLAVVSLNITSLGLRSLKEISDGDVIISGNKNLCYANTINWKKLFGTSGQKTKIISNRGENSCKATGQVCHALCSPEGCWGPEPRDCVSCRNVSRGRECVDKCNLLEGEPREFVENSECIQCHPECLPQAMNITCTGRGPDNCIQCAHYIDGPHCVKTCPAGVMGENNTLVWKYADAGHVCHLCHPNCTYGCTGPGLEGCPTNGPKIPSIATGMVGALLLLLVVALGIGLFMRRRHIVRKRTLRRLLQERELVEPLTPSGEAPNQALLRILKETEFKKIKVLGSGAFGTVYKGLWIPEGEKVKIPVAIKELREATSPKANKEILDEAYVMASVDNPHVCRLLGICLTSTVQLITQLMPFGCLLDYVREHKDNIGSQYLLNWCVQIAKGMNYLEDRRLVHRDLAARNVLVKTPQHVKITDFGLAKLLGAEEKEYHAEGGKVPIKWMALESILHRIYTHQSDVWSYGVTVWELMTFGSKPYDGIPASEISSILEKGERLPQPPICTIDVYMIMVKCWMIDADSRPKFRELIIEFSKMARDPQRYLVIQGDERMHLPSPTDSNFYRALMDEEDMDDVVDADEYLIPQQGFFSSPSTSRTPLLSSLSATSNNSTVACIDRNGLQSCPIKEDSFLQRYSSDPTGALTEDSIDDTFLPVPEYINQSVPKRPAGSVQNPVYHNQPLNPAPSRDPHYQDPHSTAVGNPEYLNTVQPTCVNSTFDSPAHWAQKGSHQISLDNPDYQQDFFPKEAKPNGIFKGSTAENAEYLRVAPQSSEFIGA
Chain of Lyn A (P07948 whole entry): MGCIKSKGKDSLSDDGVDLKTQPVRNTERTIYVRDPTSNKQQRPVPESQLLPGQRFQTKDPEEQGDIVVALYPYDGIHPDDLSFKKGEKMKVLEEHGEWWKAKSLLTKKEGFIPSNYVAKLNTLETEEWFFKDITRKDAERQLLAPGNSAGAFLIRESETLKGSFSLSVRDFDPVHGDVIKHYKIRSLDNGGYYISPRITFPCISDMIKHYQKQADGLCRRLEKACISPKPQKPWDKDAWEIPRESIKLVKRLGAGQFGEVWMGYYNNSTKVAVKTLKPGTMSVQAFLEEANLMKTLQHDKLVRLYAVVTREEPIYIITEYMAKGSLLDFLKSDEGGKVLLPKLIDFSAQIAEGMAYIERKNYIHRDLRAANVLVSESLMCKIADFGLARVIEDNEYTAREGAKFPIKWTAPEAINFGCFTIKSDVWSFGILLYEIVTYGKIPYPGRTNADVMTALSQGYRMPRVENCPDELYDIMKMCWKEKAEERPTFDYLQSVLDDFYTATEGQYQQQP
Chain of SRC (P12931 whole entry): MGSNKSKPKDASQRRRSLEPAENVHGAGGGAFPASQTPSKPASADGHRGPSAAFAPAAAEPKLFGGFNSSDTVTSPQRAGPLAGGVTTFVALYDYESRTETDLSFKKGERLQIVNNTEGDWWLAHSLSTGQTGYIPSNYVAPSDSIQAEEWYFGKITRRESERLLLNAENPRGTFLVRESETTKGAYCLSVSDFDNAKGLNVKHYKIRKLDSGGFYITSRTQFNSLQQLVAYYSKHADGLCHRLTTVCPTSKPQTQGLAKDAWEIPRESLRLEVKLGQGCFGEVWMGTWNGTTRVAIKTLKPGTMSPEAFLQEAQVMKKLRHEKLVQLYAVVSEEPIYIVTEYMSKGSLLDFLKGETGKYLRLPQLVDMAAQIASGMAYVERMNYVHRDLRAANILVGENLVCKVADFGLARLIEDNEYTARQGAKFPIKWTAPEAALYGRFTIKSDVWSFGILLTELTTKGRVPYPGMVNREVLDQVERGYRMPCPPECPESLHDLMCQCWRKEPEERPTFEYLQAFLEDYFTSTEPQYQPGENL

Row | IC50 ([5]; cell-free) | SMILES | inhibitory effect on EGFR [1] | inhibitory effect on SRC [2] | inhibitory effect on ZAP 70 [3] | inhibitory effect on Lyn A [4] | Syk inhibition compared to S701 ([5]; FIG. 6B) | phosphorylated Band 3 [6] | IC50 [7] | number of MPs released per μL of plasma [8] | RBC velocity through a 5 μm tube [9] | percent inhibition of hemolysis at 5 µM ([10]; 5 μM S701, Diamide, read-out: inhibition of hemolysis, Diamide) | percent inhibition of hemolysis at 5 µM ([10]; 5 μM S701, Phenylhydrazine, read-out: inhibition of hemolysis, Phenylhydrazine) | percent inhibition of hemolysis at 5 µM ([10]; 5 μM S701, phosphatase inhibitor OV, read-out: inhibition of hemolysis, OV) | decrease of concentration of free plasma hemoglobin [11]
1 | – | COc1ccc(Nc2nc(Nc3cccc4[nH]ccc34)ncc2F)c(-c2ccc(O)c(O)c2)c1 [S602, 2′-((2-((1H-indol-4-yl)amino)-5-fluoropyrimidin-4-yl)amino)-5′-methoxy-[1,1′-biphenyl]-3,4-diol] | very significantly higher concentrations to have an impact | very significantly higher concentrations to have an impact | very significantly higher concentrations to have an impact | very significantly higher concentrations to have an impact | even better IC50 value for inhibiting Syk as compared to S701 | – | – | – | – | – | – | – | –
2 | 0.581 µM | COc1cc(Nc2ncc(F)c(NC(=O)c3cc(O)c(O)c(O)c3)n2)cc(OC)c1OC [S701, N-(5-fluoro-2-((3,4,5-trimethoxyphenyl)amino)pyrimidin-4-yl)-3,4,5-trihydroxybenzamide] | has to be in really high concentrations to have any inhibitory effect | – | – | – | – | notable decrease in phosphorylated Band 3 | ~5 µM | five | increased RBC velocity | 50% | 44% | 25% | 47%
